Experimental data taken from patent publication US20170226139A1, “CRYSTALLINE SALTS OF (Z)-O-OCTADEC-9-EN-1-YL O,O-DIHYDROGEN PHOSPHOROTHIOATE” (priority 2013, published 2017).
Like-named read-outs stand apart in the source and are kept apart here.

Key:
Human LPA1 = target: T1, Human LPA1 (Homo sapiens, UniProt Q92633); experiment: Calcium-mobilization assay (FURA-2), human LPA1 transfected cells; type: cell-based; settings: for EC50: EC50 [nM], mean
T1 construct: expressed in transfected cells; host or cells: mouse embryonic fibroblasts (MEF)
Protocol: (§1) We investigated structure-activity relationships across species, LPAR subtypes and between Rx100 and two known process impurities encountered in manufacture: Rx103 (‘E’ isomer) and Rx200 (oleyl phosphate and impurity, which can be an Rx100 degradant along with oleyl alcohol). Rx100, Rx103, Rx200 and native LPA were investigated at different human LPAR subtypes. In addition, the activity of these compounds was evaluated at LPA2 receptors from the rhesus, rat and mouse species. Human LPA1/2/3 subtypes were transfected into mouse embryonic fibroblasts (MEF) or rat hepatoma cells (RH7777)—both of which are normally non-responsive or null to LPA. Human LPA4 was transfected into Chinese hamster ovary (CHO) cells and LPA5 into the B103 neuroblastoma cell line. […] The B103 rat neuroblastoma cell line is endogenously nonresponsive to LPA but expresses heterologous LPA5 receptors well. […] LPAR activation elicits a G-protein-mediated transient rise in intracellular calcium level that is proportional to the concentration of LPA applied. The intracellular calcium level was quantified by the calcium-selective fluorescent indicator FURA-2 (e.g., increased intracellular calcium surge=increased fluorescence).

[1] = target: LPA2 receptors from the rat (Rattus norvegicus, UniProt A0ABK0LT65); experiment: Calcium-mobilization assay (FURA-2), rat LPA2; type: cell-based
Protocol: as §1

Human LPA4 = target: T2, Human LPA4 (Homo sapiens, UniProt Q99677); experiment: Calcium-mobilization assay (FURA-2), human LPA4 in CHO cells; type: cell-based
T2 construct: expressed in transfected cells; host or cells: CHO
Protocol: as §1

[2] = Gravimetric moisture sorption analysis, with XRPD afterwards; type: physicochemical
Protocol: Moisture sorption analysis of the Rx100.L-Lysine salt was performed by equilibrating the sample at 25° C. and 50% RH to simulate ambient lab conditions. Humidity then decreased to 0% RH, increased from 0 to 95% RH, reduced from 95 to 0% RH, increased from 0 to 95% RH and then decreased from 95 to 50% RH.

[3] = Single subcutaneous dose pharmacokinetics in irradiated and unirradiated mice; type: in vivo, C57BL/6 mice; settings: single SC dose 1 mg/kg, 1 mg/kg; for AUC(0-inf): read-out: AUCINF_obs
Text: We performed a randomized, open-label, single-dose, four-arm, subcutaneously-administered, study of the pharmacokinetics of Rx100.Ammonia and Rx100.Lysine in irradiated and unirradiated C57BL/6 mice to evaluate the effect of salt form and irradiation on extravascular pharmacokinetics. The purpose of this study was to evaluate the pharmacokinetic parameters for two salt forms of Rx100 (Lysine and Ammonia) in healthy and PB irradiated (IR) mice when administered as a single dose. Each animal received a 1 mg/kg dose of Rx100.Lysine or Rx100.Ammonia. The animals receiving Rx100.Lysine or Rx100.Ammonia after irradiation were dosed 26±2 hours after irradiation and sampling times are relative to the time of test article dosing.
More specifically, randomized, acclimated, C57BL/6 mice were administered Rx100.Lysine or Rx100.Ammonia (10 mM L-histidine in sterile water for injection, or 1% ethanol, 2% propylene glycol in PBS, respectively) as a single dose as indicated in Table 25.
Blood was collected from 4 male and 4 female mice via cardiac puncture at pre-defined time points relative to test article dosing (0.5, 1, 2, 4, 6, 8, 12, 18, 24, and 48 hours) and collected into micro plasma separator vials (BD Microtainer®) containing lithium heparin. Blood was maintained on ice until centrifugation and subsequent processing. Blood draws were a terminal procedure. Plasma was frozen at −80° C. until submitted for bioanalysis. Sample collection was completed in September 2012. Samples were transferred to Covance in December 2013, and sample analysis was complete in the first quarter of 2014.
A total of 160 male and 160 female C57BL/6 10-12 week old mice were used in this study. Animals were randomized with weight stratification into treatment groups and given a second ear tag. Animals were acclimated for 16-19 days (See below Table 26). Prior to irradiation or dosing (in non-irradiated groups), animals were weighed a second time which was the basis of the animal dose delivered.
TLDs were used for dosimetry and confirmation of the delivered dose. TLDs were analyzed by MD Anderson and have a +/−5% accuracy. A total of 19 dosimeters were used with a mean measured dose of 15.33±0.166 Gy.
Analysis was performed using qualified and validated Phoenix® WinNonlin® Software. The final data provided was imported into Phoenix® WinNonlin®. All data presented in the tables and figures within the results section of this report were generated using the validated Phoenix® WinNonlin® Software.

[4] = Evaporative crystallization tests, XRPD; type: physicochemical; settings: evaporated to dryness under vacuum at ambient conditions
Protocol: Third, Evaporative Crystallization tests were performed. Based on the short term slurry experiments, all samples which experienced full dissolution were utilized for evaporative crystallizations. Samples were evaporated to dryness under vacuum at ambient conditions.

[5] = + IR (irradiated mice), whole group (not split by gender), listed as Rx100.Lysine
[6] = healthy mice, F, listed as Rx100.Lysine
[7] = healthy mice, M, listed as Rx100.Lysine
[8] = healthy mice, whole group (not split by gender), listed as Rx100.Lysine
[9] = irradiated mice (15.6 Gy, dosed 26 ± 2 h after), F, listed as Rx100.Lysine
[10] = irradiated mice (15.6 Gy, dosed 26 ± 2 h after), M, listed as Rx100.Lysine

T1 sequence (Q92633 whole entry): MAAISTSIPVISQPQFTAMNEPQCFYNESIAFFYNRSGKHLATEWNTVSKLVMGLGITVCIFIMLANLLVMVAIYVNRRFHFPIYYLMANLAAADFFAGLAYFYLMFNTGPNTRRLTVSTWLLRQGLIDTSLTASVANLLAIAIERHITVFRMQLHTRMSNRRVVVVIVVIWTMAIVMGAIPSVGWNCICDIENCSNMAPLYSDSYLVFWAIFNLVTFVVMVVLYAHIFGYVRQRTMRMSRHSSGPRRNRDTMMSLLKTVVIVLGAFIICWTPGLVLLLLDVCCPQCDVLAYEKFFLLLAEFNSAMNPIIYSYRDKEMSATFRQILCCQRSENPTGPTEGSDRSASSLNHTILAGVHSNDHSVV
Chain of LPA2 receptors from the rat (A0ABK0LT65 1-348): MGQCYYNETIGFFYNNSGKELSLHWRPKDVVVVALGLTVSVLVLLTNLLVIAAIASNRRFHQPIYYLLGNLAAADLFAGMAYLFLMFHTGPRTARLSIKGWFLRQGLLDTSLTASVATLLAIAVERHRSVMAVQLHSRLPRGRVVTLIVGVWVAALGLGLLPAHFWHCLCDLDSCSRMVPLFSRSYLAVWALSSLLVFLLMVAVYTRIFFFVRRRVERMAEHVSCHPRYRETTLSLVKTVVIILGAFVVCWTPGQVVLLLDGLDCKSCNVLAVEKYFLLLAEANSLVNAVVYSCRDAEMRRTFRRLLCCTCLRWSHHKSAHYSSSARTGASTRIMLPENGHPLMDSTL
T2 sequence (Q99677 whole entry): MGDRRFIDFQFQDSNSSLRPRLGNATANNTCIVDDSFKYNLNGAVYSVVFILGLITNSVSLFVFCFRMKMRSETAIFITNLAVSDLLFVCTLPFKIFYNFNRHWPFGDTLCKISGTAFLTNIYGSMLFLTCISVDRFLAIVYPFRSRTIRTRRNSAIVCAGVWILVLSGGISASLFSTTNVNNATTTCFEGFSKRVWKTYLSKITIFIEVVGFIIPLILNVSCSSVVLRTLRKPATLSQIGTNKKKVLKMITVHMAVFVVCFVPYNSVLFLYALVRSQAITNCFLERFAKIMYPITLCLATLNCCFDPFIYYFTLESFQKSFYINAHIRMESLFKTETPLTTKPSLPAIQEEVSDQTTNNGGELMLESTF

CCCCCCCC/C=C\CCCCCCCCOP(O)(O)=S [Rx100, (Z)—O-octadec-9-en-1-yl O,O-dihydrogen phosphorothioate]
EC50 (Human LPA1; LPA1 DKO MEF, human): 273 nM | EC50 (Human LPA1; LPA1 RH7777, human): 1030 nM | Emax (Human LPA1; RH7777, read-out: Emax (% of LPA)): 69% | Emax (Human LPA1; read-out: Emax (% of LPA)): 70% | EC50 [1]: 76 nM | Emax ([1]; read-out: Emax (% of LPA)): 100% | EC50 (Human LPA4): > 5000 nM | Emax (Human LPA4; CHO, read-out: Emax (% of LPA)): 97%

CCCCCCCC/C=C\CCCCCCCCOP(O)(O)=S [Rx100.L-Lysine, (Z)—O-octadec-9-en-1-yl O,O-dihydrogen phosphorothioate]
Hygroscopicity [2]: hygroscopic | Residual water content after desorption [2]: < 3% | Water adsorbed in moisture sorption analysis ([2]; at 95% RH, 25° C.): 20.6% | Form by XRPD after moisture sorption analysis ([2]; compared with Pattern A): no change in form | Cmax ([3]; IR males, listed as Rx100.Lysine): 299 ng/mL | AUC(0-inf) ([3]; both sexes, C57BL/6, mouse, plasma, sc, + IR (irradiated mice), whole group (not split by gender)): 1210 ng·h/mL | Cmax ([3]; both sexes, C57BL/6, mouse, plasma, sc, + IR (irradiated mice), whole group (not split by gender), read-out: Cmax): 323 ng/mL | AUC(0-inf) ([3]; both sexes, C57BL/6, mouse, plasma, sc, healthy mice, whole group (not split by gender)): 1660 ng·h/mL | Cmax ([3]; both sexes, C57BL/6, mouse, plasma, sc, healthy mice, whole group (not split by gender), read-out: Cmax): 512 ng/mL | AUC ([3]; female, C57BL/6, mouse, plasma, sc, IR females, read-out: AUC): 1240 ng·h/mL | Cmax ([3]; female, C57BL/6, mouse, plasma, sc, IR females, read-out: Cmax): 355 ng/mL | Cmax ([3]; female, C57BL/6, mouse, plasma, sc, healthy females, read-out: Cmax): 455 ng/mL | AUC ([3]; female, C57BL/6, mouse, plasma, sc, healthy females, read-out: exposure (AUC)): 1590 ng·h/mL | AUC(0-inf) ([3]; female, C57BL/6, mouse, plasma, sc, healthy mice, F): 1590 ng·h/mL | Cmax ([3]; female, C57BL/6, mouse, plasma, sc, healthy mice, F, read-out: Cmax): 454 ng/mL | AUC(0-inf) ([3]; female, C57BL/6, mouse, plasma, sc, irradiated mice (15.6 Gy, dosed 26 ± 2 h after), F): 1240 ng·h/mL | Cmax ([3]; female, C57BL/6, mouse, plasma, sc, irradiated mice (15.6 Gy, dosed 26 ± 2 h after), F, read-out: Cmax): 355 ng/mL | AUC ([3]; male, C57BL/6, mouse, plasma, sc, IR males, read-out: AUC): 1170 ng·h/mL | AUC ([3]; male, C57BL/6, mouse, plasma, sc, healthy males, read-out: AUC): 1750 ng·h/mL | Cmax ([3]; male, C57BL/6, mouse, plasma, sc, healthy males, read-out: Cmax): 570 ng/mL | AUC(0-inf) ([3]; male, C57BL/6, mouse, plasma, sc, healthy mice, M): 1750 ng·h/mL | Cmax ([3]; male, C57BL/6, mouse, plasma, sc, healthy mice, M, read-out: Cmax): 570 ng/mL | AUC(0-inf) ([3]; male, C57BL/6, mouse, plasma, sc, irradiated mice (15.6 Gy, dosed 26 ± 2 h after), M): 1170 ng·h/mL | CLss_F [3, 5]: 13.822 mL/min/kg | HL_Lambda_z [3, 5]: 1.44 h | Vz_F [3, 5]: 1.72242 L/kg | CLss_F [3, 6]: 10.462 mL/min/kg | HL_Lambda_z [3, 6]: 1.84 h | Vz_F [3, 6]: 1.66432 L/kg | CLss_F [3, 7]: 9.5183 mL/min/kg | HL_Lambda_z [3, 7]: 1.91 h | Vz_F [3, 7]: 1.57087 L/kg | CLss_F [3, 8]: 10.032 mL/min/kg | HL_Lambda_z [3, 8]: 1.16 h | Vz_F [3, 8]: 1.00622 L/kg | CLss_F [3, 9]: 13.466 mL/min/kg | HL_Lambda_z [3, 9]: 1.87 h | Vz_F [3, 9]: 2.17384 L/kg | CLss_F [3, 10]: 14.264 mL/min/kg | Cmax [3, 10]: 298.75 ng/mL | HL_Lambda_z [3, 10]: 1.32 h | Vz_F [3, 10]: 1.62547 L/kg | Form by XRPD after evaporative crystallization [4]: no change in form
